Experimental findings from US11479552B2, “Substituted piperidine compounds and their use” (Eisai R&D Management Co., Ltd., priority 2020, dated 2022) are described below.

In one test the target is hOX1R (Homo sapiens (Human), UniProt O43613). The test can be described thus: Test Example 1-2: Evaluation of activating activity for OX1R (calcium flux, HEK293 with forced expression). The test is classed as cell-based. The following applies: HEK293 cells expressing hOX1R; intracellular calcium; 30 nM OX-A as 100%; up to 1×10^−5 M. Here is the method:
(§1) Human Embryonic Kidney cells 293 (HEK293) cells with forced expression of hOX1R or hOX2R were seeded in a 384-well microplate (Greiner) at 10,000 per well and cultured for 1 day in high-glucose-DMEM (FujiFilm Corp.—Wako Pure Chemical Industries, Ltd.) containing added 10% FBS (Thermo Scientific) and 1% Penicillin-Streptomycin (FujiFilm Corp.—Wako Pure Chemical Industries, Ltd.). After removing the medium, 30 μL of assay buffer (20 mM HEPES (Sigma-Aldrich Japan, KK.), Hank's balanced salt solution (Gibco), 0.1% BSA (Sigma-Aldrich Japan, KK.), 0.1% Pluronic F-127 (Invitrogen)) containing Calcium 4 dye (Molecular Device Corporation) and 2.5 mM probenecid (Sigma-Aldrich Japan, KK.) were added, and the mixture was incubated for 60 minutes. A 30 μL portion of assay buffer containing the test compound was added and reaction was initiated. Change in intracellular calcium ion concentration by the reaction was measured based on the fluorescence intensity ratio in terms of the fluorescence value with […], using FDSS7000 (Hamamatsu Photonics, K.K.). The test compound was dissolved in DMSO to 10 mM, and diluted with assay buffer to a final concentration of from 3×10^−11 M to 1×10^−5 M (DMSO final concentration of 0.1%). The EC50 value was determined from the fluorescence value with addition of the test compound at different concentrations, with the fluorescence value of the well with compound-free buffer added as 0%, and the fluorescence value of the well with 30 nM OX-A (Peptide Research Lab) as 100%.

The target in a further test is hOX2R (Homo sapiens (Human), UniProt O43614). The test can be described thus: Test Example 1-2: Evaluation of activating activity for OX2R (calcium flux, HEK293 with forced expression). In kind it is cell-based. The settings on record: HEK293 cells expressing hOX2R; intracellular calcium; 30 nM OX-A as 100%; up to 1×10^−5 M. Here is the method:
as §1

The subject of test [1] is C57BL/6 line wild type (WT) male mice. The test can be described thus: Test Example 3: Wake-promoting effect by oral administration to wild type mice (EEG/EMG). The test is classed as in vivo. Here is the method:
The experimental animals used were C57BL/6 line wild type (WT) male mice. Electroencephalogram and electromyogram measuring electrodes were surgically embedded into 13-week-old mice under isoflurane anesthesia. The solvent (0 mg/kg) or a solution of the compound of Example 1 dissolved in the solvent (1, 3 or 10 mg/kg) was orally administered 30 to 15 minutes before lighting was turned off. The solvent used was a 0.1 moL/L hydrochloric acid solution containing 5% (v/v) DMSO and 5% (v/v) Kolliphor™ EL. The electroencephalogram and electromyogram were recorded for about 24 hours, from 1 hour before lighting was turned off. The mice were repeatedly used, with a washout period of 2 days or longer. The electroencephalogram and electromyogram data obtained for each mouse were used to assess the sleep stage every epoch (10 seconds), using sleep analysis software (SleepSign: Kissei Comtec Co., Ltd.). […] Using 16 mice in each administered group, the sleep onset latency in a solvent-administered group (control group) and an Example 1 compound-administered group were compared by a Dunnet-type multiple comparison test following survival time analysis in consideration of the number of experiments and use of the same individuals, with a significance level of 5% at both ends for each.

Another test relates to Male C57BL/6NCrl mice. Description: Test Example 2: Increase in spontaneous movement. The test is classed as in vivo. The settings on record: orally administered 10 mg/kg, measured 2 hours after administration, control group as 100%. Here is the method:
Similar to increase in body temperature or increase in cardiovascular parameters such as blood pressure, increased movement in mice is one of indicator for wakefulness. In this test example, the alertness effect was evaluated by measuring spontaneous movement of the mice. Male C57BL/6NCrl mice (18-19 weeks old, Charles River Laboratories, Japan Inc., 4 mice in each group) were used for the experiment. Spontaneous movement was measured by using a movement measuring device (VersaMax Oven Field, AccuScan Instruments, Inc.), irradiating infrared rays from the side sections of the measuring cage, and quantifying the number of times that the mice passed through the irradiation. After placing the mice in the measuring cage and conditioning for 3 hours, the compound was orally administered (10 mg/kg). Spontaneous movement was measured 2 hours after administration. The test compound-administered group was administered a solution of the test compound dissolved in 0.1 moL/L hydrochloric acid containing 5% (v/v) DMSO and 5% (v/v) Kolliphor™ EL. For the control group, solvent alone without the test compound was administered to the mice.
Spontaneous movement was represented as a percentage for the test compound-administered group, with spontaneous movement in the control group as 100%.

In the next test the target is human OX2R (hOX2R) (Homo sapiens (Human), UniProt O43614). Description: Test Example 1-1: Evaluation of activity for OX2R (calcium flux, HEK293 with forced expression). In kind it is cell-based. The following applies: HEK293 cells expressing hOX2R; intracellular calcium; 10 nM OX-A as 100%; up to 1×10^−7 M. Here is the method: HEK293 (human embryonic kidney 293) cells with forced expression of human OX1R (hOX1R) or human OX2R (hOX2R) were seeded in a 384-well microplate (Greiner) at 10,000 per well and cultured for 1 day in high-glucose-DMEM (FujiFilm Corp.—Wako Pure Chemical Industries, Ltd.) containing added 10% FBS (Tenno Scientific) and 1% Penicillin-Streptomycin (FujiFilm Corp.—Wako Pure Chemical Industries, Ltd.). After removing the medium, 40 μL of assay buffer (20 mM HEPES (Sigma-Aldrich Japan, KK.), Hanks' balanced salt solution (Gibco), 0.1% BSA (Sigma-Aldrich Japan, KK.), 0.1% Pluronic F-127 (Invitrogen)) containing Calcium 4 dye (Molecular Device Corporation) and 2.5 mM probenecid (Sigma-Aldrich Japan, KK.) were added, and the plate was incubated for 60 minutes. After further adding 20 μL of assay buffer, 20 μL of assay buffer containing the test compound was added and reaction was initiated. Change in intracellular calcium ion concentration during the reaction was measured based on the fluorescence intensity ratio in terms of the fluorescence value with wavelength excitation at 480 nm and detection at 540 nm, using FDSS7000 (Hamamatsu Photonics, K.K.). The test compound was dissolved in DMSO to 10 mM, and diluted with assay buffer to a final concentration of from 3×10^−11 M to 1×10^−7 M (DMSO final concentration of 0.1%). […]
A general note: Calcium flux is commonly read through the fluorescence of an indicator in the cells.

Test [2] concerns orexin/ataxin-3 Tg/+ mice. The test can be described thus: Test Example 4: Wake-promoting effect and cataplexy-free state elongation in orexin-deficient mice (EEG/EMG). In kind it is in vivo. The following applies: oral; for DREM latency: cut-off 4 hours. Here is the method:
The experimental animals used were orexin/ataxin-3 Tg/+ mice (hereunder referred to as “Tg mice”, Ham et al., Neuron, 30,345-54,2001) with a C57BL/6 genetic background. Electroencephalogram and electromyogram measuring electrodes were surgically embedded into 12-week-old mice (±2 weeks) under isoflurane anesthesia. The solvent (0 mg/kg) or a solution of a sample (compound of Example 1 dissolved in the solvent: 0.3, 1 or 3 mg/kg) was orally administered 30 to 15 minutes before lighting was turned off. The solvent used was a 0.1 moL/L hydrochloric acid solution containing 5% (v/v) DMSO and 5% (v/v) Kolliphor™ EL. The electroencephalogram and electromyogram were recorded for about 24 hours, from 1 hour before lighting was turned off. The mice were repeatedly used, with a washout period of 2 days or longer. The electroencephalogram and electromyogram data obtained for each mouse were used to assess the sleep stage every epoch (10 seconds), using sleep analysis software (SleepSign: Kissei Comtec Co., Ltd.), up to a maximum of 4 hours (cut-off value). For the purpose of this experiment, cataplexy-like symptoms were defined as REM sleep appearing immediately after wakefulness (direct transition from wake to REM sleep (DREM)) for a contiguous period of 4 epochs or longer. DREM in mice is an analog of cataplexy (Exp Neurol. 2009; 217:46-54). The time until initial sleep appeared after lighting out for each mouse (sleep for contiguous 8 epochs or longer, excluding DREM)(sleep onset latency) and the time until initial DREM appeared (DREM latency) were measured. The numbers of mice were 14 in the vehicle group and Example 1 compound-administered groups. The sleep onset latency and DREM latency in a vehicle control group and a compound-administered group were compared by a Dunnet-type multiple comparison test following survival time analysis in consideration of the number of experiments and use of the same individuals, with a significance level of 5% at both ends for each.

Chain of hOX1R (O43613 whole entry): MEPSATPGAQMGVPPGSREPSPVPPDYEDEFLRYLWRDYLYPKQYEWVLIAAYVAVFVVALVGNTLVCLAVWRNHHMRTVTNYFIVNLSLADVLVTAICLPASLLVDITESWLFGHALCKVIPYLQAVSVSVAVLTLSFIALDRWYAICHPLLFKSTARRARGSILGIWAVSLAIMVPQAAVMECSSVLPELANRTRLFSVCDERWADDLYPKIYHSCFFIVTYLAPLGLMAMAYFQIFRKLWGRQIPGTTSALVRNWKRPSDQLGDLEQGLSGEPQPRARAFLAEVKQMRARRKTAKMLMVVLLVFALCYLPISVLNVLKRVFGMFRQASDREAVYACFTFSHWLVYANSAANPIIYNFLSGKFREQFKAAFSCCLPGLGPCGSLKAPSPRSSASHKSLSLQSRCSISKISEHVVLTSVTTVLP
Chain of hOX2R (O43614 whole entry): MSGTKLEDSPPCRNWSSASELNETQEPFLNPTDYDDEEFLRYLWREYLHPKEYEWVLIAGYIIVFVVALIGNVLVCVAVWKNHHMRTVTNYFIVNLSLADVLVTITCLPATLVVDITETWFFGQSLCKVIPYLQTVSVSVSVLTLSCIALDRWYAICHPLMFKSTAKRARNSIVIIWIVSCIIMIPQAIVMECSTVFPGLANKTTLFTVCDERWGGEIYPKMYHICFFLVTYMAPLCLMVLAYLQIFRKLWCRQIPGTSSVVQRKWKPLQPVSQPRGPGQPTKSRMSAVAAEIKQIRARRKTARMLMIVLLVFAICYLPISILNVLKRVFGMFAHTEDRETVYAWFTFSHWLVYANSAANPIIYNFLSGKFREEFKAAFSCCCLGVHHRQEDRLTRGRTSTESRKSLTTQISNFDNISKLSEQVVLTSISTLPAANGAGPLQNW
Chain of human OX2R (hOX2R) (O43614 whole entry): as above

A word on the EC50: it is the midpoint of the concentration-response curve. On to `CCO[C@@H]1CN(c2ncc(Cl)cn2)CC[C@@H]1[C@@H]1C[C@H]2CC[C@@H](C1)N2[C@@H](C(N)=O)C1CC1` [Example 3, (R)-2-((1R,3S,5S)-3-((3S,4R)-1-(5-chloropyrimidin-2-yl)-3-ethoxypiperidin-4-yl)-8-azabicyclo[3.2.1]octan-8-yl)-2-cyclopropyl acetamide], for which the figures for the EC50 at hOX1R and on hOX2R were 1400 nM and 4.3 nM, respectively.
Consider `CO[C@@H]1CN(c2ncc(F)cn2)CC[C@@H]1[C@@H]1C[C@H]2CC[C@@H](C1)N2[C@@H](C(N)=O)C1CC1` [Example 1, (R)-2-cyclopropyl-2-((1R,3S,5S)-3-((3S,4R)-1-(5-fluoropyrimidin-2-yl)-3-methoxypiperidin-4-yl)-8-azabicyclo[3.2.1]octan-8-yl)acetamide], for which the sleep onset latency in test [1] (1 mg/kg) was determined as 0.28 h; in test [1] (3 mg/kg), 0.44 h; in test [1] (10 mg/kg), 2.07 h; in test [2] (0.3 mg/kg), 0.31 h; in test [2] (1 mg/kg), 0.64 h; in test [2] (3 mg/kg), 2.42 h. Further, the half-maximal effective concentration (EC50) on hOX1R is 4700 nM; at human OX2R (hOX2R), 0.99 nM; at hOX2R, 2.3 nM. In addition, in the test on Male C57BL/6NCrl mice, the “Spontaneous movement (% of Control)” value was 865 % of Control. Also, the results for the DREM latency in test [2] (0.3 mg/kg), in test [2] (1 mg/kg) and in test [2] (3 mg/kg) were 1.50 h, 2.26 h and 4.00 h, respectively.
Turning to `CO[C@@H]1CN(c2ncc(F)cn2)CC[C@@H]1[C@@H]1C[C@H]2CC[C@@H](C1)N2[C@@H](C(N)=O)C(C)C` [Example 2, (R)-2-((1R,3S,5S)-3-((3S,4R)-1-(5-fluoropyrimidin-2-yl)-3-methoxypiperidin-4-yl)-8-azabicyclo[3.2.1]octan-8-yl)-3-methylbutaneamide], the “Spontaneous movement (% of Control)” value in the test on Male C57BL/6NCrl mice is given as 253 % of Control.
Take `C[C@H]1C[C@@H]([C@@H]2C[C@H]3CC[C@@H](C2)N3[C@@H](C(N)=O)C2CC2)CCN1c1ncc(F)cn1` [Example 4, (R)-2-cyclopropyl-2-((1R,3S,5S)-3-((2S, 4S)-1-(5-fluoropyrimidin-2-yl)-2-methylpiperidin-4-yl)-8-azabicyclo[3.2.1]octan-8-yl)acetamide]: the EC50 stood at 3900 nM at hOX1R and 4.4 nM at hOX2R.
